The record followed here is patent US9593144B2, “FPR1 antagonist derivatives and use thereof” (CHANG GUNG UNIVERSITY, priority 2014, dated 2017).

Read-outs that look alike come from different tables or passages of the source. Square brackets hold non-standard residues; d marks the D form. Peptide text beside a SMILES is read from it. * marks the point of attachment. Bz = O=C(c1ccccc1)*

The test system of the experiment is human neutrophils. As to the kind of experiment: cells. It is filed as cell-based. As to conditions: for IC50: Neutrophil. An excerpt: Tables 5 and 6 explore whether there is an anti-inflamatory effect in the dipeptide derivatives. Because ferricytochrome c cannot penetrate cell membranes, it reacts with superoxide anion extracellularly. Also, there are absorptive reactions at 550 nm, and differences among the absorptive reactions can be used to evaluate the influence on the release of superoxide anion. The elastase is released by degranulation as the neutrophil is activated. Tables 5 and 6 use the substrate, MeO-Suc-Ala-Ala-Pro-Val-p-nitroanilide, with the specificity for reacting with the elastase so as to evaluate the influence of the candidate compound on the elastase release.
Blood was taken from healthy human donors (20-32 years old) by venipuncture, following a protocol approved by the Institutional Review Board at Chang Gung Memorial Hospital. Neutrophils were isolated by a standard method of dextran sedimentation prior to centrifugation in a Ficoll Hypaque gradient and the hypotonic lysis of erythrocytes.
The evaluation of O2.^− generation was based on the SOD-inhibitable reduction of ferricytochrome c. In brief, after supplementation with 0.5 mg ml^−1 ferricytochrome c and 1 mM Ca^2+, neutrophils were equilibrated at 37° C. for 2 min and incubated with drugs […].

For the compound `COC(=O)[C@@H](Cc1ccccc1)NC(=O)[C@H](Cc1c[nH]c2ccccc12)NC(=O)c1ccccc1` [Compound 3, N—(N-Benzoyl-L-tryptophanyl)-D-phenylalanine methyl ester] (Bz-Trp-[dF]-OMe), the IC50 runs as follows: (WKYMVm, mean ± SEM, n = 4 or 8, Table 5, read-out: Superoxide anion WKYMVm IC50) 4.98 ± 0.27 µM; (WKYMVm/CB, mean ± SEM, n = 3, Table 4, read-out: WKYMVm/CB O2•− generation (IC50)) 4.83 ± 0.66 µM; (human neutrophils triggered by fMLF, read-out: IC50 of inhibitory effect (superoxide anion, fMLF) restated in text) 0.32 ± 0.03 µM; (human neutrophils, fMLF/CB, mean ± SEM, n = 3, Table 4, read-out: fMLF/CB O2•− generation (IC50)) 0.23 ± 0.02 µM; (human neutrophils, fMLF, mean ± SEM, n = 4 or 8, Table 5, read-out: Superoxide anion fMLF IC50) 0.32 ± 0.03 µM; (human neutrophils, fMLP/CB, mean ± SEM, n = 3, Table 1, read-out: Anti-inflammation O2•− generation (IC50)) 0.23 ± 0.02 µM. Further, the “selectivity for FPR1/2 and FPR1 (difference WKYMVm vs fMLF)” value (superoxide anion, WKYMVm vs fMLF) was 15 fold.
